The values below come from US20160160234A1, “COMPOSITION FOR TRANSFERRING GENE TO CELL” (ISHIHARA SANGYO KAISHA, LTD., priority 2013, published 2016).

Experiment [1] deals with A549 cells.
Method: A549 cells and NIH-3T3 cells, both of which are adherent cultured cells, were individually seeded in a 96-well plate at a cell density of 4×10^3 cells/well one day before transfection.
84 μL of a 10 mg/mL sericin (Wako Pure Chemical Industries, Ltd., trade name: Pure Sericin) aqueous solution was added to 6 μL of a ½% sorbitan sesquioleate (Nacalai Tesque, Inc.) ethanol solution, and the mixture was mixed by pipetting.
As a virus-derived envelope, a 47.8 HAU/μL inactivated HVJ envelope (GenomONE-CF: registered trademark, produced by Ishihara Sangyo Kaisha, Ltd.) suspension, which is derived from Sendai virus, was used in the experiment.
After 54 μL of PBS was added to 6 μL of the inactivated HVJ envelope suspension, 6 μL of a 2% Triton X-100 PBS solution was added thereto. The mixture was centrifuged at 4° C., 10,000 g for 5 minutes with a high-speed refrigerated microcentrifuge, thereby pelletting down the inactivated HVJ envelope. […] After 2.5 μL of the liquid mixture of the inactivated HVJ envelope and the pCMV-GL3 plasmid was transferred to each tube, 28 μL of a 1/20 mg/mL laminin (SIGMA) aqueous solution or water was individually added thereto, and each mixture was mixed by pipetting. […]
The subject of experiment [2] is RAW264.7 cells. The experiment in a line: Luciferase gene expression after transfection with pCMV-GL3 plasmid (ONE-Glo Luciferase Assay System). Type of experiment: cell-based. The protocol:
Gene transfer using FuGENE HD transfection reagent (Roche) was performed as follows.
Gene transfer using Polyethylenimine Max (Polyscience) was performed as follows. 13.5 μL of water was added to 1.5 μL of 1 mg/mL Polyethylenimine Max (pH of 7, MW of 25,000).

Experiment [3] deals with K562 cells. The description is as above. Type of experiment: cell-based. As to conditions: Example 16, in combination with the composition of the present invention or Lipofectamine LTX&PLUS reagent.
Method: (§1) The next day, whether gene transfer was achieved was confirmed by measuring the enzyme activity (relative value) of luciferase protein produced from the pCMV-GL3 plasmid by using ONE-Glo Luciferase Assay System (Promega).
K562 cells, which are suspension cultured cells, were seeded in a 96-well plate at a cell density of 2×10^4 cells/well on the day of transfection.
154 μL of a 15 mg/mL sericin PBS solution was added to 11 μL of a ½% sorbitan sesquioleate (Nacalai Tesque, Inc.) ethanol solution, and the mixture was mixed by pipetting.
48 μL of the prepared solution above was added to 40 μL of a 1/10 mg/mL pCMV-GL3 plasmid solution, and the mixture was mixed by pipetting. 20 μL of a 1 mg/mL protamine sulfate PBS solution was then added to prepare a test composition (prepared for each kind of cells; total of three tubes). The test composition was added at 15 μL/well to the cell culture media.
Gene transfer using Lipofectamine LTX&PLUS reagent (Invitrogen) was performed as follows. 0.7 μL of a 1 mg/mL pCMV-GL3 plasmid solution and 0.7 μL of a PLUS reagent were added to 140 μL of Opti-MEM I Reduced Serum Medium (Gibco), and the mixture was allowed to stand for 5 minutes. 2.8 μL of Lipofectamine LTX reagent was further added thereto, and the mixture was allowed to stand for 25 minutes, after which it was added at 20 μL/well to the cell culture media. […]
In experiment [4] the test system is NIH-3T3 cells. Described as above. Type of experiment: cell-based.
Method: NIH-3T3 cells, which are adherent cultured cells, were seeded in a 96-well plate at a cell density of 4×10^3 cells/well one day before transfection.
16.8 μL of a 5 mg/mL sericin PBS solution was added to 1.2 μL of a ¼% sorbitan sesquioleate (Nacalai Tesque, Inc.) ethanol solution, and the mixture was mixed by pipetting.
16.8 μL of a 5 mg/mL sericin PBS solution was added to 1.2 μL of a ¼% sorbitan monooleate (SIGMA) ethanol solution, and the mixture was mixed by pipetting.
0.6 μL of a ⅕% L-α-dioleoyl phosphatidylethanolamine (Wako Pure Chemical Industries, Ltd.; hereinafter referred to as “DOPE”) ethanol solution or 0.6 μL of ethanol was individually added to 0.6 μL of a ⅕% cardiolipin (SIGMA) ethanol solution. 16.8 μL of a 5 mg/mL sericin PBS solution was further added to each mixture, and each of the resulting mixtures was mixed by pipetting.
15 μL of a 1/10 mg/mL pCMV-GL3 plasmid solution was added to 18 μL of each of the above prepared solutions, and each mixture was mixed by pipetting. 7.5 μL of a 1 mg/mL protamine sulfate PBS solution was then added to each of the resulting mixtures, thereby preparing test compositions. Each of these test compositions was added at 15 μL/well to the cell culture media.
11.2 μL of ¼, ½, 3, 5, 20, 30, or 50 mg/mL sericin PBS solution or PBS was individually added to 0.8 μL of a ½% sorbitan sesquioleate (Nacalai Tesque, Inc.) ethanol solution, and each mixture was mixed by pipetting.
10 μL of a 1/10 mg/mL pCMV-GL3 plasmid solution was added to 12 μL of each of the prepared solutions above, and each mixture was mixed by pipetting.
In experiment [5] the test system is Jurkat cells. Described as above. As to conditions: Example 12, lipid ethanol solutions ¼% or ⅕%, 5 mg/mL sericin, 1 mg/mL protamine sulfate, 15 μL/well, next day.
Method: Jurkat cells, which are suspension cultured cells, were seeded in a 96-well plate at a cell density of 4×10^4 cells/well on the day of transfection.
280 μL of a 15 mg/mL sericin (Wako Pure Chemical Industries, Ltd., trade name: Pure Sericin) PBS solution was added to 20 μL of a ½% sorbitan sesquioleate (Nacalai Tesque, Inc.) ethanol solution, and the mixture was mixed by pipetting.
The inactivated HVJ envelope suspension was diluted 2-fold, 4-fold, 8-fold, 16-fold, and 32-fold with PBS. 8 μL of a 0.3% Triton X-100 PBS solution was added to 4 μL of each of these diluted, inactivated HVJ envelope suspensions, and each mixture was centrifuged at 4° C., 10,000 g for 5 minutes with a high-speed refrigerated microcentrifuge, thereby pelleting down the inactivated HVJ envelope. […] 4 μL of PBS was added to 12.5 μL of each of the individual HVJ envelope suspensions containing the plasmid or to a 1/10 mg/mL pCMV-GL3 plasmid solution, and 20 μL of the liquid mixture of sorbitan sesquioleate and sericin prepared in advance was further added to each mixture. After each of the resulting mixtures was mixed by pipetting, 6.25 μL of a 1 mg/mL protamine sulfate PBS solution was added to each mixture, thereby preparing test compositions. Each of these test compositions was added at 9.5 μL/well to the cell culture medium.
as §1
112 μL of a 15 mg/mL sericin (Wako Pure Chemical Industries, Ltd., trade name: Pure Sericin) PBS solution was added to 8 μL of a ½% sorbitan sesquioleate (Nacalai Tesque, Inc.) ethanol solution, and the mixture was mixed by pipetting.
10 μL of a 0.2% Triton X-100 PBS solution was added to 1 μL of the inactivated HVJ envelope suspension, and the mixture was centrifuged at 4° C., 10,000 g for 5 minutes with a high-speed refrigerated microcentrifuge, thereby pelletting down the inactivated HVJ envelope. […]
Experiment [6] concerns THP-1 cells. The experiment in a line: Gene transfer of pTurboGFP-N plasmid observed with a fluorescence microscope. It counts as cell-based. The conditions noted are these: Example 1, 5 μL/well, next day, FIG. 3.
Experiment [7] relates to A549 cells. Described as above. It counts as cell-based. As to conditions: Example 1, 5 μL/well, next day, FIG. 3.
The mark [8] stands for this setting: Example 16, in combination with the composition of the present invention or Lipofectamine LTX&PLUS reagent.
Where [9] appears, read: Example 12, lipid ethanol solutions ¼% or ⅕%, 5 mg/mL sericin, 1 mg/mL protamine sulfate, 15 μL/well, next day.
Where [10] appears, read: Example 11, pCMV-GL3 in inactivated HVJ envelope (component F) in all compositions, 8.1 μL/well, next day.

With `O=C(NCCCNc1nc(Nc2cccc(NC(=O)N3CCCC3)c2)ncc1I)c1cccs1` [compound A, N-[3-[[5-iodo-4-[[3-[(2-thienylcarbonyl)amino]propyl]amino]-2-pyrimidinyl]amino]phenyl]-1-pyrrolidinecarboxamide], the “improvement in gene expression by compound A used in combination with a gene transfer vector” value is listed as “improvement in the gene expression was confirmed” in experiment [1] (setting [8]); “improvement in the gene expression was confirmed” in experiment [2] (setting [8]); “improvement in gene expression was confirmed” in experiment [2] (Example 17, in combination with the composition of the present invention, Lipofectamine LTX&PLUS reagent, FuGENE HD transfection reagent, or Polyethylenimine Max); “improvement in the gene expression was confirmed” in experiment [3].
In the case of Sericin, the “Luciferase gene expression level (relative value)” value was 346 in experiment [4] (Example 13, Sericin concentration 0 mg/mL (PBS), with ½% sorbitan sesquioleate and 1 mg/mL protamine sulfate, 15 μL/well); 761,785 in experiment [4] (Example 13, Sericin concentration 3 mg/mL, with ½% sorbitan sesquioleate and 1 mg/mL protamine sulfate, 15 μL/well); 729,703 in experiment [4] (Example 13, Sericin concentration 5 mg/mL, with ½% sorbitan sesquioleate and 1 mg/mL protamine sulfate, 15 μL/well); 762,661 in experiment [4] (Example 13, Sericin concentration 20 mg/mL, with ½% sorbitan sesquioleate and 1 mg/mL protamine sulfate, 15 μL/well); 458,447 in experiment [4] (Example 13, Sericin concentration 30 mg/mL, with ½% sorbitan sesquioleate and 1 mg/mL protamine sulfate, 15 μL/well); 24,194 in experiment [4] (Example 13, Sericin concentration 50 mg/mL, with ½% sorbitan sesquioleate and 1 mg/mL protamine sulfate, 15 μL/well). Further, the “Luciferase gene expression level (relative value)” value in experiment [4] (Example 13, Sericin concentration ¼ mg/mL, with ½% sorbitan sesquioleate and 1 mg/mL protamine sulfate, 15 μL/well) is 77,190; in experiment [4] (Example 13, Sericin concentration ½ mg/mL, with ½% sorbitan sesquioleate and 1 mg/mL protamine sulfate, 15 μL/well) it was 285,344. The “gene expression compared with the case where sericin was not used” value in experiment [4] (Example 13, ¼ to 50 mg/mL sericin) is on record as “gene expression was improved”.
Turning to cardiolipin, the “Luciferase gene expression level (relative value)” value in experiment [5] and in experiment [4] (setting [9]) was “makes it possible to introduce a gene” in each case.
As for protamine sulfate [component C], the “gene transfer (green fluorescent protein TurboGFP observed with a fluorescence microscope)” value in experiment [6] and in experiment [7] was “Almost no gene transfer” throughout. In addition, the “Luciferase gene expression level (relative value)” value in experiment [1] (setting [10]) and in experiment [4] (setting [10]) was “gene transfer was observed” in each case.
As for sorbitan monooleate, the “Luciferase gene expression level (relative value)” value in experiment [5] and in experiment [4] (setting [9]) was “makes it possible to introduce a gene” throughout.
Regarding sorbitan sesquioleate, the “Luciferase gene expression level (relative value)” value in experiment [5] is reported as “makes it possible to introduce a gene”; in experiment [4] (setting [9]), “makes it possible to introduce a gene”; in experiment [4] (Example 14, Sorbitan sesquioleate concentration 1/2%, with 10 mg/mL sericin and 1 mg/mL protamine sulfate, 15 μL/well) it was 1,349,057; in experiment [4] (Example 14, Sorbitan sesquioleate concentration 1/10%, with 10 mg/mL sericin and 1 mg/mL protamine sulfate, 15 μL/well), 291,463; in experiment [4] (Example 14, Sorbitan sesquioleate concentration 1/50%, with 10 mg/mL sericin and 1 mg/mL protamine sulfate, 15 μL/well) it was 887; in experiment [4] (Example 14, Sorbitan sesquioleate concentration 5/2%, with 10 mg/mL sericin and 1 mg/mL protamine sulfate, 15 μL/well), 425,949. For the same compound, the gene expression entry in experiment [4] (Example 14, 1/50 to 5/2% sorbitan sesquioleate) is “gene expression was observed”.
